Results reported in patent publication US4623661A, “Lipoxygenase inhibiting compounds” (Abbott Laboratories, priority 1985, dated 1986).
pIC50: −log10 of the molar value.

Tests used:
Type in all cases: biochemical
5-lipoxygenase = molecular target: T1, 5-lipoxygenase (Rattus norvegicus, UniProt P12527); experiment: 5-Lipoxygenase IC50 determination (20,000 G supernatant from homogenized RBL-1 cells, radiolabeled arachidonic acid); conditions: RBL-1 cell 20,000 G supernatant; linear regression of % inhibition vs log concentration
T1 construct: 20,000 G supernatant from 7.5×10^6 homogenized RBL-1 cells; endogenous in cells; host or cells: RBL-1 cells (20,000 G supernatant of homogenate)
T1 sequence (P12527 1-673): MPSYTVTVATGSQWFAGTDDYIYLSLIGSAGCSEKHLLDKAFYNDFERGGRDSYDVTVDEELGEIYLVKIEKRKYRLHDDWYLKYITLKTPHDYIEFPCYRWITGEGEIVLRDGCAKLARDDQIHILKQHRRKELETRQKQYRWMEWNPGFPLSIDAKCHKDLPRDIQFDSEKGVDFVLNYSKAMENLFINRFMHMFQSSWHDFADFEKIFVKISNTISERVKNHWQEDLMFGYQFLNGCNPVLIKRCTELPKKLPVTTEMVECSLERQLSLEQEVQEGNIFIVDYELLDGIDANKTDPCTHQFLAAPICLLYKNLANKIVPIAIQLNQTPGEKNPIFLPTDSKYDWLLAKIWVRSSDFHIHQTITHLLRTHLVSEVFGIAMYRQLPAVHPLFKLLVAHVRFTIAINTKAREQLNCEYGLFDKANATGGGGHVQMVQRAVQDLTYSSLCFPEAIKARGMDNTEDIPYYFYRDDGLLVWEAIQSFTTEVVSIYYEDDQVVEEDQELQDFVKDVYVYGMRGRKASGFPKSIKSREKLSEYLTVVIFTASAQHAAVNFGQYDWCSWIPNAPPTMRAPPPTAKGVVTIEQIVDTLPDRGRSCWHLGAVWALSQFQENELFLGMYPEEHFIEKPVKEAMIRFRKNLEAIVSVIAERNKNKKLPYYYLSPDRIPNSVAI
Description: Reactions were initiated by the addition of radiolabeled arachidonic acid and terminated by acidification and ether extraction. Reaction products were separated from nonconverted substrate by thin layer chromatography and measured by liquid scintillatiton spectroscopy. Inhibition of 5-lipoxygenase activity was calculated as the ratio of the amounts of product formed in the presence and absence of inhibitor.

15-lipoxygenase = molecular target: T2, 15-lipoxygenase (Glycine max, UniProt P08170); experiment: 15-lipoxygenase inhibition (15-lipoxygenase obtained from soybean); conditions: for inhibition at 10 µM: read-out: % Inhibition at Indicated Concentration, 15-lipoxygenase, 10 uM; for inhibition at 100 µM: read-out: % Inhibition at Indicated Concentration, 15-lipoxygenase, 100 uM
T2 construct: 15-lipoxygenase obtained from soybean; from tissue; host or cells: soybean
T2 sequence (P08170 1-839): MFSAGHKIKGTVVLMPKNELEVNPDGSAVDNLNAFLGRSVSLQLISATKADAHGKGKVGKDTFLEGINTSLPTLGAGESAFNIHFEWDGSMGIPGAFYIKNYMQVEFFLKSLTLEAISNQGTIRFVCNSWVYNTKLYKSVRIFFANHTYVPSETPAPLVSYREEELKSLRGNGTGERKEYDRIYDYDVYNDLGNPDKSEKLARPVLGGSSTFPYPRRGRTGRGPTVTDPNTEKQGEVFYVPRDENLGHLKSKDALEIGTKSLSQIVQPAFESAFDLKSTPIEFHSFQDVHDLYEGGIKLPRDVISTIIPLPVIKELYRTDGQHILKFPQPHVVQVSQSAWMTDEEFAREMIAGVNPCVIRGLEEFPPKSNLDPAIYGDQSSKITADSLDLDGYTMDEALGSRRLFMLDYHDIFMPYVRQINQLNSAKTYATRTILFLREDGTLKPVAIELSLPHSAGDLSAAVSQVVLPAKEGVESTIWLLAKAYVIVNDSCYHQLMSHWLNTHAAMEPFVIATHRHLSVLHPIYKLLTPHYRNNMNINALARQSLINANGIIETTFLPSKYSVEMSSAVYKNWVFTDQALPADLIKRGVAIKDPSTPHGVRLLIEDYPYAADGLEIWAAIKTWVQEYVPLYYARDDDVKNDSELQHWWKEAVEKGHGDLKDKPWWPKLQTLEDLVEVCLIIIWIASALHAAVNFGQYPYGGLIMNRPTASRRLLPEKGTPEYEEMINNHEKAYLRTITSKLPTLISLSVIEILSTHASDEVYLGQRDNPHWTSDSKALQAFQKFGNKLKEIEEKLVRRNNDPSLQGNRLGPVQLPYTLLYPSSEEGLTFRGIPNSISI
Description: (§1) The compounds of this invention are potent inhibitors of 5-, 12- and 15-lipoxygenase. An assay to determine 5-lipoxygenase activity was performed in incubations containing various concentrations of the test compound and the 20,000 G supernatant from 7.5×10^6 homogenized RBL-1 cells. Reactions were initiated by the addition of radiolabeled arachidonic acid and terminated by acidification and ether extraction. Reaction products were separated from nonconverted substrate by thin layer chromatography and measured by liquid scintillatiton spectroscopy. Inhibition of 5-lipoxygenase activity was calculated as the ratio of the amounts of product formed in the presence and absence of inhibitor.
(§2) The inhibitory activities of the compounds of this invention against 12- and 15-lipoxygenase can be determined in the foregoing assay in which 12-lipoxygenase obtained from human platelets, or 15-lipoxygenase obtained from soybean, is substituted for the 5-lipoxygenase-containing cell supernatant fraction.

12-lipoxygenase = molecular target: T3, 12-lipoxygenase (Homo sapiens, UniProt P18054); experiment: 12-lipoxygenase inhibition (12-lipoxygenase obtained from human platelets); conditions: for inhibition at 10 µM: read-out: % Inhibition at Indicated Concentration, 12-lipoxygenase, 10 uM; for inhibition at 100 µM: read-out: % Inhibition at Indicated Concentration, 12-lipoxygenase, 100 uM
T3 construct: 12-lipoxygenase obtained from human platelets; from tissue; host or cells: human platelets
T3 sequence (P18054 1-663): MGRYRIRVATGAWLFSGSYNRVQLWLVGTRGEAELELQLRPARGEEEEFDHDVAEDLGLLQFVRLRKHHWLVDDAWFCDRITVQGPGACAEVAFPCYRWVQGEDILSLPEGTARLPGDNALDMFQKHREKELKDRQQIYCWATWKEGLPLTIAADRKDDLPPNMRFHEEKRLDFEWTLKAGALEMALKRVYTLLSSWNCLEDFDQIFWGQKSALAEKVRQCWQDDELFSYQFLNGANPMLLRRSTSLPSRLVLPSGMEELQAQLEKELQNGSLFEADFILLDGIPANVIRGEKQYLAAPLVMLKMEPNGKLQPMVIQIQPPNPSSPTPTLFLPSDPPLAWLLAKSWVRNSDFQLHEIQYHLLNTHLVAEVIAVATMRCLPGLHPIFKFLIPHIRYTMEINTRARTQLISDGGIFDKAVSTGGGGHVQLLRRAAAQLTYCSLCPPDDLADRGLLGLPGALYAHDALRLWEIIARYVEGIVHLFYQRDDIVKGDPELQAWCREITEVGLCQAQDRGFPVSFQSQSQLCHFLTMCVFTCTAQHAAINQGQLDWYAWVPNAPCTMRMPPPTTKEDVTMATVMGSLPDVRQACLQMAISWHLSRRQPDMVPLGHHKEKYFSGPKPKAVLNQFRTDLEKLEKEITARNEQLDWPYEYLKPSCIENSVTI
Description: as §1, §2

inhibition at 10 µM (15-lipoxygenase) [%]	inhibition at 100 µM (15-lipoxygenase) [%]	inhibition at 10 µM (12-lipoxygenase) [%]	inhibition at 100 µM (12-lipoxygenase) [%]	Structure (SMILES)	pIC50 (5-lipoxygenase)
0	30	86	97	O=C(NO)c1ccc(-c2ccccc2)cc1 [Example 7, 4-biphenyl hydroxamic acid]	5.39
43	85	99	96	CN(O)C(=O)C=Cc1cccc(-c2ccccc2)c1 [Example 2, N-methyl-3-(3-biphenyl)-acrylohydroxamic acid]	–
–	–	–	–	O=C(NO)c1ccc2c(ccc3ccccc32)c1 [Example 12, 2-Phenanthrylhydroxamic acid]	5.72
52	74	63	68	CN(O)C(=O)C=Cc1ccc(-c2ccccc2)cc1 [Example 1, N-Methyl 3-(4-biphenyl)acrylohydroxamic acid]	–
33	33	–	–	O=C(NO)c1cccc(-c2ccccc2)c1 [Example 8, 3-biphenyl hydroxamic acid]	5.22

Structure (SMILES)	inhibition at 10 µM (15-lipoxygenase) [%]	inhibition at 100 µM (15-lipoxygenase) [%]	inhibition at 10 µM (12-lipoxygenase) [%]	inhibition at 100 µM (12-lipoxygenase) [%]	pIC50 (5-lipoxygenase)
O=C(NO)c1ccc2ccc3ccccc3c2c1 [Example 13, 3-Phenanthryl hydroxamic acid]	25	39	–	–	5.92
